Values of other authors in patent publication US20120016347A1, “Seroma Control for Surgical Patients” (priority 2010, published 2012).

Tested on: pleural effusions
Conditions: Patz (Chest, 1998)

Row | Molecule | Success rate in completely or partially controlling pleural effusions [%]
1 | C[C@H]1c2cccc(O)c2C(O)=C2C(=O)[C@]3(O)C(O)=C(C(N)=O)C(=O)[C@@H](N(C)C)[C@@H]3[C@@H](O)[C@@H]21 [doxyclycline, doxycycline] | 79
2 | bleomycin | 72
